How the values were obtained:
[1] = test system: CD19-expressing K562 target cells; assay: Target cell killing by primary human CD8+ T cells expressing the CD19 specific ER-beta/CoRNR ON-switch CAR; format: cell-based; details: 22 hours co-culture; percent of CD19-expressing K562 target cells remaining; various drug concentrations
Procedure: Cell killing by primary human CD8+ T cells expressing the CD19 specific ER-beta/CoRNR ON-switch CAR was also assessed. Specifically, the percent of CD19-expressing K562 target cells remaining after 22 hours of co-culture with primary human CD8+ T cells expressing the CD19 specific ER-beta/CoRNR ON-switch CAR (ER-CAR) in the presence of various concentrations of drug (4-hydroxytamoxifen (4HT) or rapalog) was measured (FIG. 52). Cells expressing a CD19 specific single-chain second generation CAR (“2nd gen CAR”) and cells expressing a CD19 specific rapalog on-switch CAR, with administered rapalog dimerizer, were used as positive controls. Negative controls included cells expressing ER-CAR T cells in absence of 4HT (ethanol vehicle only, “ER-CAR+EtOH”) and cells expressing only part 2 of the ER-CAR on-switch construct, i.e., without part 1, in the presence of 4HT.

[2] = test system: ER CAR+ Jurkat cells; assay: CD69 upregulation by ER CAR+ Jurkat cells (bCW502 and bCW505) co-cultured with K562 target cells; format: cell-based, human
Procedure: A Jurkat cell line expressing Green Fluorescent Protein upon NFAT activation was used. The cell line was maintained in RPMI-1640 medium supplemented with 10% FBS and glutamine. K562 target cells (CD19+/−) were cultured in DMEM supplemented with 10% FBS. Jurkat cells infected with lentivirus with the CAR constructs were co-cultured with K562 target cells that expressed the target antigen (CD19) or an irrelevant antigen (mesothelin). 4-Hydroxytamoxifen (Sigma-Aldrich #H7904) was dissolved in DMSO and added to samples to a final concentration of 0-10 μM. The Rapalog A/C Heterodimerizer (Clontech Laboratories #635055) was dissolved in ethanol and added to a final concentration of 500 nM. The cells were cultured for 24 hours, stained for CD69 expression, and analyzed on a flow cytomter.
The data are depicted in FIG. 16A and FIG. 16B. FIG. 16A. CD69 upregulation by Jurkat cells expressing ER CAR+ (bCW502 and bCW505) after 24 hours of co-culturing with K562 target cells expressing CD19 or mesothelin, an irrelevant antigen (“meso”), in the presence or absence of a small-molecule dimerizer (4-hydroxytamoxifen or rapalog AP21967). […] Rapamycin CAR and dead rapamycin CAR (with a mutation in ITAM that abolishes signalling) were tested as positive and negative controls, respectively. FIG. 16B. […]

[3] = test system: primary human CD8+ T cells expressing a CD19 specific ER-beta/CoRNR ON-switch CAR; assay: CD69 upregulation by primary human CD8+ T cells expressing ER-beta/CoRNR ON-switch CAR co-cultured with K562 target cells; format: cell-based; details: 24 hours co-culture with K562 cells expressing CD19, 4-hydroxytamoxifen 0-10 μM
Excerpt: A human estrogen receptor beta nuclear receptor-peptide system was expressed in primary human T cells and found to capable of modulating ON-switch CAR activity. A CD19 specific ON-switch CAR was constructed to include human estrogen receptor beta ligand binding domain and co-repressor peptide (CoRNR). A schematic representation of the general construct within the T cell membrane, and the associated CD19 antigen expressed on the surface of the target cell, is provided in FIG. 17.
Specifically, CD69 upregulation by primary human CD8+ T cells expressing a CD19 specific ON-switch CAR constructed to include human estrogen receptor beta ligand binding domain (ER-beta) and co-repressor peptide (CoRNR) was measured after 24 hours of co-culturing with K562 target cells expressing CD19 or mesothelin, an irrelevant antigen (“meso”), in the presence or absence of a small-molecule dimerizer (4-hydroxytamoxifen or rapalog “rapa”).

[4] = test system: primary CD8+ T cells expressing a split ON-switch CAR (human Vitamin D receptor ligand binding domain / SRC2-3 coactivator peptide); assay: T cell activation of primary CD8+ T cells expressing a split ON-switch CAR with human Vitamin D receptor LBD and SRC2-3 coactivator peptide; format: cell-based; details: in the presence of the dimerizer

| EC50 ([2]; 24 hours co-culture with K562 cells expressing CD19, flow cytometry, read-out: EC50 of CD69 expression induction) [nM] | Compound | target cell killing (cytotoxic activity) [1] | CD69 expression in ER CAR+ Jurkat cells ([2]; 24 hours co-culture, only in the presence of K562 cells expressing CD19, not the irrelevant antigen mesothelin) | T cell activation (CD69 upregulation) of primary human CD8+ T cells [3] | T cell activation (CD69 upregulation) of primary human CD8+ T cells ([3]; listed as 4-hyroxytamoxifen) | T cell activation [4] |
| --- | --- | --- | --- | --- | --- | --- |
| ~100 | 4-Hydroxytamoxifen | inducible target cell killing | strongly induced | increasing numbers of CD69 positive primary human CD8+ T cells | increased T cell activation | – |
| – | C=C1/C(=C\C=C2/CCC[C@]3(C)[C@@H]([C@H](C)/C=C/[C@@H](O)C4CC4)CC[C@@H]23)C[C@@H](O)C[C@@H]1O [calcipotriol] | – | – | – | – | increased activation |
